In US11505558B1, “Antiviral heterocyclic compounds” (Enanta Pharmaceuticals, Inc., priority 2019, dated 2022):
pEC50: −log10 of the molar value.

Key:
[1] = test system: genotype A, "Long" strain RSV; assay: RSV-A assay (CPE, ATPlite readout in Hep-2 cells); assay type: cell-based; settings: human respiratory syncytial virus, HEp-2, Hep-2 cells, genotype A "Long" strain RSV, MOI 0.1; read-out: Human RSV-A (“Long” strain) EC50
Outline: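 Hep-2 cells (8,000/well) received 2-fold serial compound dilutions in duplicate and RSV Long strain at MOI 0.1. After 5 days' incubation, cell health was read as ATP by ATPlite luminescence, with virus-only and uninfected controls defining max and minimum CPE; EC50 reported.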

[2] = test system: recombinant HMPV CAN97-83 (MPV-GFP1); assay: HMPV antiviral assay (MPV-GFP1 eGFP fluorescence in Vero E6 cells); assay type: cell-based; settings: human metapneumovirus, Vero C1008, 120 h, read-out: HMPV EC50
Outline: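 Vero E6 cells in serum-free OptiMEM with 0.5 μg/mL TPCK-trypsin infected with eGFP-expressing HMPV CAN97-83 (MPV-GFP1) at MOI 0.05. 8-point […] ½-step dilutions from 8 or 2 μM, 0.5% DMSO, 5 days at 32 °C. eGFP fluorescence normalized to infected untreated wells; EC50 from four-parameter logistic fit.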

Cc1ncc(-c2cc(C(=O)NC[C@](O)(c3cc4c(c(-c5ccc(F)cc5)n3)OC[C@]4(C)C(N)=O)C(F)(F)F)ccc2OC2CC2)cn1 [Example 137]
pEC50 [1]: > 6.70
pEC50 [2]: > 6.30

Cc1cnc2c(NC(=O)NC3(C)CC3)cc(C(=O)NC[C@](O)(c3cc4c(c(-c5ccc(F)cc5)n3)OC[C@]4(C)C(N)=O)C(F)(F)F)cc2c1 [Example 550]
pEC50 [1]: > 6.70
pEC50 [2]: > 6.30

Cc1nc2ccc(C(=O)NC[C@](O)(c3cc4c(c(-c5ccc(F)cc5)n3)OC[C@]4(C)C(N)=O)C(F)(F)F)cc2o1 [Example 424]
pEC50 [1]: > 6.70
pEC50 [2]: > 6.30

C[C@]1(C(=O)NCc2ccco2)COc2c1cc([C@@](O)(CNC(=O)c1cc(OC3CC3)c3ncccc3c1)C(F)(F)F)nc2-c1ccc(F)cc1 [Example 475]
pEC50 [1]: > 6.70
pEC50 [2]: > 6.30

Cc1cnc2c(NC(=O)NC3CC3)cc(C(=O)NC[C@](O)(c3cc4c(c(-c5ccc(F)cc5)n3)OC[C@]4(C)C(N)=O)C(F)(F)F)cc2c1 [Example 417]
pEC50 [1]: > 6.70
pEC50 [2]: > 6.30

Cc1cnc2c(NC(=O)c3ccon3)cc(C(=O)NC[C@](O)(c3cc4c(c(-c5ccc(F)cc5)n3)OC[C@]4(C)C(N)=O)C(F)(F)F)cc2c1 [Example 621]
pEC50 [1]: > 6.70
pEC50 [2]: < 6.30

COc1cc(C(=O)NC[C@](O)(c2cc3c(c(-c4ccc(F)cc4)n2)OC[C@]3(C)C(N)=O)C2CC2)cc2cc(Cl)cnc12 [Example 528]
pEC50 [1]: > 6.70
pEC50 [2]: > 6.30

C[C@]1(C(N)=O)COc2c1cc([C@@](O)(CNC(=O)c1cc(OC3CC3)c3ncc(Cl)cc3c1)C1CC1)nc2-c1ccc(F)c(Cl)c1 [Example 531]
pEC50 [1]: > 6.70
pEC50 [2]: > 6.30

C[C@]1(C(N)=O)COc2c1cc([C@@](O)(CNC(=O)c1cc(OCC(N)=O)c3ncccc3c1)C(F)(F)F)nc2-c1ccc(F)cc1 [Example 364]
pEC50 [1]: > 6.70
pEC50 [2]: < 6.30

CC(C)(O)CNC(=O)[C@@]1(C)COc2c1cc([C@@](O)(CNC(=O)c1ccc3nc(N)sc3c1)C(F)(F)F)nc2-c1ccc(F)cc1 [Example 497]
pEC50 [1]: > 6.70
pEC50 [2]: < 6.30

C[C@]1(C(N)=O)COc2c1cc([C@@](O)(CNC(=O)c1ccc(OC3CC3)c(N3CCC3)c1)C(F)(F)F)nc2-c1ccc(F)cc1 [Example 136]
pEC50 [1]: > 6.70
pEC50 [2]: < 6.30

COc1cc(C(=O)NC[C@](O)(c2cc3c(c(-c4ccc(F)cc4)n2)OC[C@]3(C)C(N)=O)C2CC2)cc2cc(C)cnc12 [Example 256]
pEC50 [1]: > 6.70
pEC50 [2]: > 6.30

COc1cc(C(=O)NC[C@](O)(c2cc3c(c(-c4ccc(F)cc4)n2)OC[C@]3(C)C(N)=O)C(F)(F)F)cc2cc(C(F)(F)F)cnc12 [Example 557]
pEC50 [1]: > 6.70
pEC50 [2]: > 6.30

COc1cc(C(=O)NC[C@](O)(c2cc3c(c(-c4ccc(F)cc4)n2)OC[C@]3(C)C(N)=O)C(F)(F)F)cc2ccccc12 [Example 69]
pEC50 [1]: < 6.70
pEC50 [2]: < 6.30

C[C@]1(C(N)=O)COc2c1cc([C@@](O)(CNC(=O)c1ccc(OC3CC3)c(OC3CC3)c1)C(F)(F)F)nc2-c1ccc(F)c(C(F)(F)F)c1 [Example 96]
pEC50 [1]: > 6.70
pEC50 [2]: > 6.30

Cc1cc2cc(C(=O)NC[C@](O)(c3cc4c(c(-c5ccc(F)cc5)n3)OC[C@]4(C)C(N)=O)C(F)(F)F)ccc2nn1 [Example 616]
pEC50 [1]: > 6.70
pEC50 [2]: > 6.30

C[C@]1(C(N)=O)COc2c1cc([C@@](O)(CNC(=O)c1ccc(OC3CC3)c(OC3CC3)c1)C(F)(F)F)nc2-c1ccc(C(F)(F)F)cc1 [Example 93]
pEC50 [1]: > 6.70
pEC50 [2]: < 6.30

C[C@]1(C(N)=O)COc2c1cc([C@@](O)(CNC(=O)c1cc(-c3cccnc3)c3ncccc3c1)C(F)(F)F)nc2-c1ccc(F)cc1 [Example 350]
pEC50 [1]: > 6.70
pEC50 [2]: < 6.30

COc1ncc(C(=O)NC[C@](O)(c2cc3c(c(-c4ccc(F)cc4)n2)OC[C@]3(C)CNCC2CC2)C(F)(F)F)s1 [Example 36]
pEC50 [1]: < 6.70
pEC50 [2]: < 6.30

COc1cc(C(=O)NC[C@](O)(c2cc3c(c(-c4ccc(F)cc4)n2)OC[C@]3(C)C(N)=O)C(F)(F)F)cc2cc(F)cnc12 [Example 518]
pEC50 [1]: > 6.70
pEC50 [2]: < 6.30

C[C@]1(C(N)=O)COc2c1cc([C@@](O)(CNC(=O)c1cc(NC(=O)c3ncco3)c3ncccc3c1)C(F)(F)F)nc2-c1ccc(F)cc1 [Example 398]
pEC50 [1]: > 6.70
pEC50 [2]: > 6.30

Cc1cnc2c(NC(=O)NCC(C)(C)F)cc(C(=O)NC[C@](O)(c3cc4c(c(-c5ccc(F)cc5)n3)OC[C@]4(C)C(N)=O)C(F)(F)F)cc2c1 [Example 622]
pEC50 [1]: > 6.70
pEC50 [2]: > 6.30

C[C@]1(C(=O)NC[C@@H](O)CO)COc2c1cc([C@@](O)(CNC(=O)c1cc(OC3CC3)c3ncccc3c1)C(F)(F)F)nc2-c1ccc(F)cc1 [Example 492]
pEC50 [1]: > 6.70
pEC50 [2]: < 6.30

COc1cc(C(=O)NC[C@](O)(c2cc3c(c(-c4ccc(F)cc4)n2)OC[C@]3(C)C(N)=O)C(F)(F)F)ccc1OC[C@@H](C)O [Example 290]
pEC50 [1]: > 6.70
pEC50 [2]: > 6.30

C[C@]1(C(N)=O)COc2c1cc([C@@](O)(CNC(=O)c1cc(NC(N)=O)c3ncccc3c1)C(F)(F)F)nc2-c1ccc(F)cc1 [Example 408]
pEC50 [1]: > 6.70
pEC50 [2]: < 6.30

C[C@]1(C(N)=O)COc2c1cc([C@@](O)(CNC(=O)c1cc(NCC(N)=O)c3ncccc3c1)C(F)(F)F)nc2-c1ccc(F)cc1 [Example 384]
pEC50 [1]: > 6.70
pEC50 [2]: < 6.30

C[C@]1(C(N)=O)COc2c1cc([C@@](O)(CNC(=O)c1ccc(OC3CC3)c(OC3CC3)c1)C(F)(F)F)nc2-c1csc2c(F)cccc12 [Example 92]
pEC50 [1]: > 6.70
pEC50 [2]: > 6.30

C[C@]1(C(N)=O)COc2c1cc([C@@](O)(CNC(=O)c1ccc(OC3CC3)c(-c3ccncn3)c1)C(F)(F)F)nc2-c1ccc(F)cc1 [Example 116]
pEC50 [1]: > 6.70
pEC50 [2]: < 6.30

CC(C)Oc1cc(C(=O)NC[C@](O)(c2cc3c(c(-c4ccc(F)cc4)n2)OC[C@]3(C)C(N)=O)C(F)(F)F)cc2sc(N)nc12 [Example 538]
pEC50 [1]: > 6.70
pEC50 [2]: < 6.30

COc1nc2c(OC)cc(C(=O)NC[C@](O)(c3cc4c(c(-c5ccc(F)cc5)n3)OC[C@]4(C)C(N)=O)C(F)(F)F)cc2s1 [Example 445]
pEC50 [1]: > 6.70
pEC50 [2]: > 6.30

C[C@]1(C(N)=O)COc2c1cc([C@@](O)(CNC(=O)c1cc(Nc3ncncn3)c3ncccc3c1)C(F)(F)F)nc2-c1ccc(F)cc1 [Example 340]
pEC50 [1]: > 6.70
pEC50 [2]: < 6.30

C[C@]1(C(N)=O)COc2c1cc([C@@](O)(CNC(=O)c1ccc(OC3CC3)c(OC3CC3)c1)C(F)(F)F)nc2-c1ccc(F)c(C#N)c1 [Example 95]
pEC50 [1]: > 6.70
pEC50 [2]: < 6.30

C[C@]1(C(N)=O)COc2c1cc([C@@](O)(CNC(=O)c1cc(Oc3ccncc3)c3ncccc3c1)C(F)(F)F)nc2-c1ccc(F)cc1 [Example 388]
pEC50 [1]: > 6.70
pEC50 [2]: < 6.30

C[C@]1(C(N)=O)COc2c1cc([C@](O)(CNC(=O)c1cc(OC3CC3)c3ncccc3c1)C(F)(F)F)nc2-c1ccc(F)c(F)c1 [Example 80]
pEC50 [1]: > 6.70
pEC50 [2]: > 6.30

COc1cc(C(=O)NC[C@](O)(c2cc3c(c(-c4ccc(F)c(F)c4)n2)OC[C@]3(C)C(N)=O)C(F)(F)F)cc2cccnc12 [Example 87]
pEC50 [1]: > 6.70
pEC50 [2]: < 6.30

COc1cc(C(=O)NC[C@](O)(c2cc3c(c(-c4ccc(F)cc4)n2)OC[C@]3(C)CC(N)=O)C(F)(F)F)cc2cccnc12 [Example 75]
pEC50 [1]: > 6.70
pEC50 [2]: < 6.30

COc1cc(C(=O)NC[C@](O)(c2cc3c(c(-c4ccc(F)cc4)n2)OC[C@]3(C)C(N)=O)C(F)(F)F)ccc1-c1ocnc1C [Example 183]
pEC50 [1]: > 6.70
pEC50 [2]: < 6.30

Cc1cnc2c(Nc3nccnn3)cc(C(=O)NC[C@](O)(c3cc4c(c(-c5ccc(F)cc5)n3)OC[C@]4(C)C(N)=O)C(F)(F)F)cc2c1 [Example 613]
pEC50 [1]: > 6.70
pEC50 [2]: > 6.30

COc1cc(C(=O)NC[C@](O)(c2cc3c(c(-c4ccc(F)cc4)n2)OCC3(F)C(N)=O)C(F)(F)F)cc2cn(C3CC3)nc12 (some centres unmarked) [Example 676]
pEC50 [1]: > 6.70
pEC50 [2]: > 6.30

C[C@]1(C(N)=O)COc2c1cc([C@@](O)(CNC(=O)c1cc(Cl)c3nc(N)sc3c1)C(F)(F)F)nc2-c1ccc(F)cc1 [Example 633]
pEC50 [1]: > 6.70
pEC50 [2]: > 6.30

CC1(NC(=O)Nc2cc(C(=O)NC[C@](O)(c3cc4c(c(-c5ccc(F)cc5)n3)OC[C@]4(C)C(N)=O)C(F)(F)F)cc3cccnc23)CC1 [Example 411]
pEC50 [1]: > 6.70
pEC50 [2]: > 6.30

C[C@]1(C(N)=O)COc2c1cc([C@@](O)(CNC(=O)c1cc(Nc3cncnc3)c3ncccc3c1)C(F)(F)F)nc2-c1ccc(F)cc1 [Example 342]
pEC50 [1]: > 6.70
pEC50 [2]: < 6.30

C[C@]1(C(N)=O)COc2c1cc([C@](O)(CNC(=O)c1cc(OC3CC3)c3ncccc3c1)C(F)(F)F)nc2-c1ccc(C(F)(F)F)cc1 [Example 82]
pEC50 [1]: > 6.70
pEC50 [2]: < 6.30

C[C@]1(C(N)=O)COc2c1cc([C@@](O)(CNC(=O)c1ccc(OC3CC3)c(-c3ncco3)c1)C(F)(F)F)nc2-c1ccc(F)cc1 [Example 124]
pEC50 [1]: > 6.70
pEC50 [2]: < 6.30

COc1cc(C(=O)NC[C@](O)(c2cc3c(c(-c4ccc(F)c(Cl)c4)n2)OC[C@]3(C)C(N)=O)C2CC2)cc2cc(C3CC3)cnc12 [Example 523]
pEC50 [1]: > 6.70
pEC50 [2]: > 6.30

C[C@]1(C(N)=O)COc2c1cc([C@@](O)(CNC(=O)c1cc(Nc3cccnc3)c3ncccc3c1)C(F)(F)F)nc2-c1ccc(F)cc1 [Example 339]
pEC50 [1]: > 6.70
pEC50 [2]: < 6.30
